Tests used:
Type in all cases: biochemical
JNK2 = molecular target: T1, JNK2 (Homo sapiens, UniProt P45984); assay: Kinase HotSpot assay, JNK2
T1 construct: purchased Reaction Biology Corp

LYN = molecular target: T2, LYN (Homo sapiens, UniProt P07948); assay: Kinase panel screening 1 μM; conditions: read-out: enzymatic inhibition LYN
T2 construct: purchased Reaction Biology Corp. (Kinase HotSpot)

RON/MST1R = molecular target: T3, RON/MST1R (Homo sapiens, UniProt Q04912); assay: Kinase panel screening 1 μM; conditions: read-out: enzymatic inhibition RON/MST1R
T3 construct: purchased Reaction Biology Corp. (Kinase HotSpot)
T3 sequence (Q04912 25-1400): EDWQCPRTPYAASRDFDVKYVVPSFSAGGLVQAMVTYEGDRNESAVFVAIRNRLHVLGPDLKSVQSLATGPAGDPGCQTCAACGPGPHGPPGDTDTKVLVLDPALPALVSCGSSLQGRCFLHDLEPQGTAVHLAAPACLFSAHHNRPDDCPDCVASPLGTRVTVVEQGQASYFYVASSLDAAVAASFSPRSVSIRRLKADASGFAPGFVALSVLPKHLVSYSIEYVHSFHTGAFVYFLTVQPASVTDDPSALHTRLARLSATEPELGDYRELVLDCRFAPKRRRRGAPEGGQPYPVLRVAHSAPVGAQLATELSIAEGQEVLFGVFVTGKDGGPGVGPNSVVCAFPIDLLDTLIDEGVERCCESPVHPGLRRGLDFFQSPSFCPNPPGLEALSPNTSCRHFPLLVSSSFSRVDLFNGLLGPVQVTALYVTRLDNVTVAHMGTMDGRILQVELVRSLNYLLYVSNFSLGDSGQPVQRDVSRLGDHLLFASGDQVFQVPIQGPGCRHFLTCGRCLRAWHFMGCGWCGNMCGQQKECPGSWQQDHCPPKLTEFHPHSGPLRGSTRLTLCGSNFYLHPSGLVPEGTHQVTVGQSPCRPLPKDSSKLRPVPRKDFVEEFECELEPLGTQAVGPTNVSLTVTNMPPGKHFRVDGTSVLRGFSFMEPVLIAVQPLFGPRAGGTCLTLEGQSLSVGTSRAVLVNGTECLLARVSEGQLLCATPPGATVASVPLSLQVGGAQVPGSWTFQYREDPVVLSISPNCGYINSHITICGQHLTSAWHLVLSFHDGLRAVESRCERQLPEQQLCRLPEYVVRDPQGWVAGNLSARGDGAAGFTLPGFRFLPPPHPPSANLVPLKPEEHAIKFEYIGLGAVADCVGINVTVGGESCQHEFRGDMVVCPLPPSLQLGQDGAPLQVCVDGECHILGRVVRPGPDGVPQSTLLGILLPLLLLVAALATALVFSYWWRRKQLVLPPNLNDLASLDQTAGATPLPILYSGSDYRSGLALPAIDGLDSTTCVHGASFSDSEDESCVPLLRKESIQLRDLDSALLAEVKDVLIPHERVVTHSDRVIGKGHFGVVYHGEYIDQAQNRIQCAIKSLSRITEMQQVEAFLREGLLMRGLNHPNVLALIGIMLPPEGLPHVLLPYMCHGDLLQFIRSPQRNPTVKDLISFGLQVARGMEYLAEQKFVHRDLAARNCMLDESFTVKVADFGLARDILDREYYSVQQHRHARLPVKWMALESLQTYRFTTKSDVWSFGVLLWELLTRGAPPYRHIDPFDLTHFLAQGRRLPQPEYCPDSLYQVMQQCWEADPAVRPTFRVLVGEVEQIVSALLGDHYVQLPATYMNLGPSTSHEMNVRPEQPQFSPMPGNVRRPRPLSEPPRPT

SYK = molecular target: T4, SYK (Homo sapiens, UniProt P43405); assay: Kinase panel screening 1 μM; conditions: read-out: enzymatic inhibition SYK
T4 construct: purchased Reaction Biology Corp. (Kinase HotSpot)

T1 sequence (P45984 whole entry): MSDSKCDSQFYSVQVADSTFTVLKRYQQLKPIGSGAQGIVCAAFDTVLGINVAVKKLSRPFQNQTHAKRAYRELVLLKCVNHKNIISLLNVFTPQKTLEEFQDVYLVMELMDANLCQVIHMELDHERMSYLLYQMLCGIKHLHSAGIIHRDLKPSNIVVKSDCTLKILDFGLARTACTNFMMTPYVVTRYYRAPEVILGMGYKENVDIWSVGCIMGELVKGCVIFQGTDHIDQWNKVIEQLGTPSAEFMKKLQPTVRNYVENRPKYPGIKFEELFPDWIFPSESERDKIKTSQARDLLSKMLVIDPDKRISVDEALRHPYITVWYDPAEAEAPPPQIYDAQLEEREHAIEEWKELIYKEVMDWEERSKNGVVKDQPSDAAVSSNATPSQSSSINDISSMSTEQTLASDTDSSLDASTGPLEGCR
T2 sequence (P07948 whole entry): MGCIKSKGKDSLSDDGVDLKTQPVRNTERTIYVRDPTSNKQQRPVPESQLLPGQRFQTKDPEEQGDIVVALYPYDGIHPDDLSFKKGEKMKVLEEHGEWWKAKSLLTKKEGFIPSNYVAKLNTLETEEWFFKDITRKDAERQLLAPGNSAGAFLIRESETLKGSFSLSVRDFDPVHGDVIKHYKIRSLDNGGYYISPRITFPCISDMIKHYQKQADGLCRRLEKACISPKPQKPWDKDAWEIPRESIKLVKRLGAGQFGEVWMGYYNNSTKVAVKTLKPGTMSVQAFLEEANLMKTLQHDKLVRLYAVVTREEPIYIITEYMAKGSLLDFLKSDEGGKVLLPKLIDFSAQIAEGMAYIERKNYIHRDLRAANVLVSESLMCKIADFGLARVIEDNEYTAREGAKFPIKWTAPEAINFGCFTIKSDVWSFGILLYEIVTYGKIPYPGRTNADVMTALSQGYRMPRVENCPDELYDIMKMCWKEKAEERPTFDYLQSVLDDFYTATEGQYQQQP

IC50 (JNK2): 898 nM | inhibition at 1 µM (JNK2; 1 μM, read-out: enzymatic inhibition JNK2): 38% | inhibition at 1 µM (LYN): 10.8% | inhibition at 1 µM (RON/MST1R): 0% | inhibition at 1 µM (SYK): 1.73%
Structure (SMILES): O=C(C1CC1)N1CCC[C@H](Nc2nccc(-n3c(-c4ccc5c(c4)OCCO5)nc4cc(O)c(O)cc43)n2)C1 [35b, (S)-Cyclopropyl(3-((4-(2-(2,3-dihydrobenzo[b][1,4]dioxin-6-yl)-5,6-dihydroxy-1H-benzo[d]imidazol-1-yl)pyrimidin-2-yl)amino)piperidin-1-yl)methanone]
